One test concerns A2780 cells. Briefly: In-Vitro Cell Proliferation Assay (SRB).
For the next test, the target named is NAMPT (Homo sapiens (Human), UniProt P43490). Briefly: Biochemical Inhibition Assay (NAMPT enzymatic reaction, NMN quantified by mass spectrometry). Particulars: 33 nM recombinant His-tagged NAMPT, 1 μM NAM, 30 min at rt. The method in brief: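 His-tagged human NAMPT from E. coli preincubated 15 min at rt with compound in 50 mM Hepes pH 7.5, 50 mM NaCl, 5 mM MgCl2, 1 mM THP, then reacted 30 min at rt with 1 μM NAM, […] PRPP, 2.5 mM ATP. NMN quantified by RapidFire mass spectrometry, normalized to L-Cystathionine, background subtracted.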

The mark [1] stands for this setting: Homo sapiens, A2780, 72 h, read-out: Cell Proliferation (IC50).
The mark [2] stands for this setting: Homo sapiens, A2780, 72 h, read-out: Cell Proliferation (IC50), A2780 cells, 72 h, sulforhodamine B.
Where [3] appears, read: read-out: Cell Proliferation (IC50), A2780 cells, 72 h, sulforhodamine B.

Like-named read-outs stand apart in the source and are kept apart here.

Sequence of NAMPT (P43490 whole entry): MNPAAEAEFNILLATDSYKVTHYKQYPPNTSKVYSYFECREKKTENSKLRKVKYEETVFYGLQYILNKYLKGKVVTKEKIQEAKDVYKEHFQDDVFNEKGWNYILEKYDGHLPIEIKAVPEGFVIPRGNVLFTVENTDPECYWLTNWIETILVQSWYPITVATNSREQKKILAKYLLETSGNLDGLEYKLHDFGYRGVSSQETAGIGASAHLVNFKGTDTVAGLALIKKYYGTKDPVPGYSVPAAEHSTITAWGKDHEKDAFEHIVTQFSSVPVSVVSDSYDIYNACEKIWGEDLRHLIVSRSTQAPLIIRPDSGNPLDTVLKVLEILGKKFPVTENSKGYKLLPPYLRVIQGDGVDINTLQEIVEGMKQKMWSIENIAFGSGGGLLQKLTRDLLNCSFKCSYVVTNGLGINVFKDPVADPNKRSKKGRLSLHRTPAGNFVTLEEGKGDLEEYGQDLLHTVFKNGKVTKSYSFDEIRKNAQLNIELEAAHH

Consider `Nc1ccc(S(=O)(=O)c2ccc(CNC(=O)c3cc4ccncc4o3)nc2)cn1` [Example 110, N-[[5-[(6-amino-3-pyridyl)sulfonyl]-2-pyridyl]methyl]furo[2,3-c]pyridine-2-carboxamide], for which the IC50 in the test on A2780 cells (setting [1]) was found to be 25.9 nM; on NAMPT, 13.3 nM.

For `O=C(NCc1ccc(S(=O)(=O)C2CCN(CC(F)(F)F)CC2)cn1)c1cnc2nccn2c1` [Example 111, N-[[5-[[1-(2,2,2-trifluoroethyl)-4-piperidyl]sulfonyl]-2-pyridyl]methyl]imidazo[1,2-a]pyrimidine-6-carboxamide], the IC50 worked out at 101 nM in the test on A2780 cells (setting [2]) and 3 nM on NAMPT.

`COc1cc(OC)cc(S(=O)(=O)c2ccc(CNC(=O)c3cc4ccncc4o3)nc2)c1` [Example 112, N-[[5-(3,5-dimethoxyphenyl)sulfonyl-2-pyridyl]methyl]furo[2,3-c]pyridine-2-carboxamide]: the IC50 is 1.06 nM in the test on A2780 cells (setting [1]) and 0.99 nM on NAMPT.

Turning to `CCS(=O)(=O)c1cccc(S(=O)(=O)c2ccc(CNC(=O)N3Cc4ccncc4C3)nc2)c1` [Example 114, N-[[5-(3-ethylsulfonylphenyl)sulfonyl-2-pyridyl]methyl]-1,3-dihydropyrrolo(3,4-c]pyridine-2-carboxamide], the IC50 with A2780 cells (setting [1]) turned out to be 134 nM; at NAMPT, 2.12 nM.

For the compound `O=C(NCc1ccc([S+]([O-])c2cc(F)cc(F)c2)cn1)N1Cc2ccncc2C1` (centres unmarked) [Example 116, N-[[5-(3,5-difluorophenyl)sulfinyl-2-pyridyl]methyl]-1,3-dihydropyrrolo[3,4-c]pyridine-2-carboxamide], the IC50 in the test with A2780 cells (setting [2]) came to 8.92 nM; at NAMPT it was 15.5 nM.

Regarding `O=C(NCc1ccc([S+]([O-])C2CCN(CC(F)(F)F)CC2)cn1)c1cc2ccncc2o1` (centres unmarked) [Example 118, N-[[5-[[1-(2,2,2-trifluoroethyl)-4-piperidyl]sulfinyl]-2-pyridyl]rnethyl]furo[2,3-c]pyridine-2-carboxamide], the IC50 in the test with A2780 cells (setting [3]) is 12.2 nM; at NAMPT, 76.1 nM.

With `O=C(NCc1ccc(S(=O)(=O)C2CCN(C3CCOCC3)CC2)cn1)N1Cc2ccncc2C1` [Example 119, N-[[5-[(1-tetrahydropyran-4 yl-4-piperidyl)sulfonyl]-2-pyridyl]methyl]-1,3-dihydropyrrolo[3,4-c]pyridine-2-carboxamide], the figures for the IC50 in the test on A2780 cells (setting [2]) and at NAMPT were 14.5 nM and 37.5 nM, respectively.

Consider `O=C(NCc1ccc([S+]([O-])c2cccc(C(F)(F)F)c2)cn1)N1Cc2ccncc2C1` (centres unmarked) [Example 120, N-[[5-[3-(trifluoromethyl)phenyl]sulfinyl-2-pyridyl]methyl]-1,3-dihydropyrrolo[3,4-c]pyridine-2-carboxamide], for which the IC50 with A2780 cells (setting [1]) was 7.59 nM; at NAMPT it was 11.7 nM.

`COCC(=O)N1CCC(S(=O)(=O)c2ccc(CNC(=O)N3Cc4ccncc4C3)nc2)CC1` [Example 121, N-[[5-[[1-(2-methoxyacetyl)-4-piperidyl]sulfonyl]-2-pyridyl]methyl]-1,3-dihydropyrrolo[3,4-c]pyridine-2-carboxamide]: the IC50 is 2000 nM with A2780 cells (setting [1]) and 68.2 nM on NAMPT.

As to `COCC(=O)N1CCC(S(=O)(=O)c2ccc(CNC(=O)c3cc4ccncc4o3)nc2)CC1` [Example 122, N-[[5-[[1-(2-methoxyacetyl)-4-piperidyl]sulfonyl]-2-pyridyl]methyl]furo[2,3-c]pyridine-2-carboxamide], the IC50 in the test on A2780 cells (setting [1]) worked out at 46.3 nM; on NAMPT, 103 nM.

For the compound `O=C(NCc1ccc(S(=O)(=O)c2cccc(N3CCOCC3)c2)cn1)c1cc2ccncc2o1` [Example 123, N-[[5-(3-morpholinophenyl)sulfonyl-2-pyridyl]methyl]furo[2,3-c]pyridine-2-carboxamide], the values for the IC50 with A2780 cells (setting [1]) and on NAMPT were 19.1 nM and 21.8 nM, respectively.

Turning to `CS(=O)(=O)c1cccc(S(=O)(=O)c2ccc(CNC(=O)c3cc4ccncc4o3)nc2)c1` [Example 124, N-[[5-(3-methylsulfonylphenyl)sulfonyl-2-pyridyl]methyl]furo[2,3-c]pyridine-2-carboxamide], the IC50 is 18.9 nM with A2780 cells (setting [1]) and 13 nM on NAMPT.

`O=C(NCc1ccc(S(=O)(=O)c2ccc(N3CCOCC3)nc2)cn1)N1Cc2ccncc2C1` [Example 125, N-[[5-[(6-morpholino-3-pyridyl)sulfonyl]-2-pyridyl]methyl]-1,3-dihydropyrrolo[3,4-c]pyridine-2-carboxamide]: the IC50 came out at 10.2 nM in the test with A2780 cells (setting [1]) and 14 nM at NAMPT.

Take `O=C(NCc1ccc(S(=O)(=O)N2CCN(C3CCOCC3)CC2)cn1)N1Cc2ccncc2C1` [Example 126, N-[[5-(4-tetrahydropyran-4-ylpiperazin-1-yl)sulfonyl-2-pyridyl]methyl]-1,3-dihydropyrrolo[3,4-c]pyridine-2-carboxamide]: the IC50 with A2780 cells (setting [1]) turned out to be 56 nM; at NAMPT it was 68.4 nM.

Consider `O=C(NCc1ccc(S(=O)(=O)N2CCN(C3CCOCC3)CC2)cn1)c1cc2ccncc2o1` [Example 127, N-[[5-(4-tetrahydropyran-4-ylpiperazin-1-yl)sulfonyl-2-pyridyl]methyl]furo[2,3-c]pyridine-2-carboxamide], for which the IC50 stood at 31.3 nM in the test on A2780 cells (setting [1]) and 49.2 nM at NAMPT.

On to `O=C(NCc1ccc(S(=O)(=O)C2CCN(C3CCOC3)CC2)cn1)c1cc2ccncc2o1` (centres unmarked) [Example 128, N-[[5-[(1-tetrahydrofuran-3-yl-4-piperidyl)sulfonyl]-2-pyridyl]methyl]furo[2,3-c]pyridine-2-carboxamide], for which the IC50 in the test on A2780 cells (setting [1]) was found to be 25.4 nM; at NAMPT, 73 nM.

In the case of `O=C(NCc1ccc(S(=O)(=O)C2CCN(C3CCOC3)CC2)cn1)N1Cc2ccncc2C1` (centres unmarked) [Example 129, N-[[5-[(1-tetrahydrofuran-3-yl-4-piperidyl)sulfonyl]-2-pyridyl]methyl]-1,3-dihydropyrrolo[3,4-c]pyridine-2-carboxamide], the IC50 in the test on A2780 cells (setting [1]) was 36.3 nM; at NAMPT, 32.7 nM.

In the case of `CCCC(=O)N1CCC(S(=O)(=O)c2ccc(CNC(=O)c3cc4ccncc4o3)nc2)CC1` [Example 130, N-[[5-[(1-butanoyl-4-piperidyl)sulfonyl]-2-pyridyl]methyl]furo[2,3-c]pyridine-2-carboxamide], the IC50 in the test on A2780 cells (setting [1]) was 50.7 nM; at NAMPT it was 39.8 nM.

For the compound `O=C(NCc1ccc(S(=O)(=O)C2CCN(CC(F)(F)F)CC2)cn1)c1cc2ccncc2o1` [Example 131, N-[[5-[[1-(2,2,2-trifluoroethyl)-4-piperidyl]sulfonyl]-2-pyridyl]methyl]furo[2,3-c]pyridine-2-carboxamide], the figures for the IC50 with A2780 cells (setting [2]) and on NAMPT were 24.4 nM and 5.24 nM, respectively.

Turning to `CS(=O)(=O)c1cccc(S(=O)(=O)c2ccc(CNC(=O)c3cnc4[nH]ncc4c3)nc2)c1` [Example 134, N-[[5-(3-methylsulfonylphenyl)sulfonyl-2-pyridyl]methyl]-1H-pyrazolo[3,4-b]pyridine-5-carboxamide], the figures for the IC50 in the test on A2780 cells (setting [1]) and on NAMPT were 446 nM and 16.8 nM, respectively.

On to `CN1CCN(c2ccc(S(=O)(=O)c3ccc(CNC(=O)c4cc5ccncc5o4)nc3)cn2)CC1` [Example 135, N-[[5-[[6-(4-methylpiperazin-1-yl)-3-pyridyl]sulfonyl]-2-pyridyl]methyl]furo[2,3-c]pyridine-2-carboxamide], for which the IC50 with A2780 cells (setting [3]) was determined as 34.4 nM; on NAMPT, 18 nM.

In the case of `CS(=O)(=O)c1cccc(S(=O)(=O)c2ccc(CNC(=O)c3ccc4nccn4c3)nc2)c1` [Example 137, N-[[5-(3-methylsulfonylphenyl)sulfonyl-2-pyridyl]methyl]imidazo[1,2-a]pyridine-6-carboxamide], the IC50 in the test on A2780 cells (setting [1]) was 81.6 nM; on NAMPT it was 56.8 nM.

In the case of `O=C(NCc1ccc(S(=O)(=O)c2cnc(N3CCCC3)s2)cn1)c1cc2ccncc2o1` [Example 138, N-[[5-(2-pyrrolidin-1-ylthiazol-5-yl)sulfonyl-2-pyridyl]methyl]furo[2,3-c]pyridine-2-carboxamide], the IC50 amounted to 2.84 nM with A2780 cells (setting [1]) and 9.45 nM on NAMPT.

Turning to `COc1cc(OC)cc(S(=O)(=O)c2ccc(CNC(=O)c3cnc4[nH]ncc4c3)nc2)c1` [Example 139, N-[[5-(3,5-dimethoxyphenyl)sulfonyl-2-pyridyl]methyl]-1H-pyrazolo[3,4-b]pyridine-5-carboxamide], the IC50 in the test on A2780 cells (setting [1]) amounted to 3.11 nM; at NAMPT, 14.7 nM.

In the case of `O=C(NCc1ccc(S(=O)(=O)N2CCN(C3COC3)CC2)cn1)c1cc2ccncc2o1` [Example 141, N-[[5-[4-(oxetan-3-yl)piperazin-1-yl]sulfonyl-2-pyridyl]methyl]furo[2,3-c]pyridine-2-carboxamide], the results for the IC50 with A2780 cells (setting [1]) and at NAMPT were 71.7 nM and 207 nM, respectively.

`O=C(NCc1ccc(S(=O)(=O)N2CCN(C3COC3)CC2)cn1)N1Cc2ccncc2C1` [Example 142, N-[[5-[4-(oxetan-3-yl)piperazin-1-yl]sulfonyl-2-pyridyl]methyl]-1,3-dihydropyrrolo[3,4-c]pyridine-2-carboxamide]: the results for the IC50 in the test with A2780 cells (setting [1]) and at NAMPT were 255 nM and 220 nM, respectively.

Regarding `O=C(NCc1ccc(S(=O)(=O)C2CCN(CC(F)(F)F)CC2)cn1)N1Cc2ccncc2C1` [Example 143, N-[[5-[[1-(2,2,2-trifluoroethyl)-4-piperidyl]sulfonyl]-2-pyridyl)methyl]-1,3-dihydropyrrolo[3,4-c]pyridine-2-carboxamide], the IC50 in the test with A2780 cells (setting [1]) amounted to 61.3 nM; on NAMPT, 111 nM.

For `CCN(C)c1ncc(S(=O)(=O)c2ccc(CNC(=O)c3ccc4nccn4c3)nc2)s1` [Example 145, N-[[5-[2-[ethyl(methyl)amino]thiazol-5-yl]sulfonyl-2-pyridyl]methyl]imidazo[1,2-a]pyridine-6-carboxamide], the results for the IC50 in the test with A2780 cells (setting [1]) and on NAMPT were 2.87 nM and 10.1 nM, respectively.

(Values after patent publication US9458172B2, “Pyridinyl and pyrimidinyl sulfoxide and sulfone derivatives” (priority 2012, dated 2016).)
